Measured values reported in patent US20070010428A1, “Inhibitors of signal transduction and activator of transcription 3” (priority 2004, published 2007).
Where two headings read alike, the source gives them in different places. Values belong to the compound of their own block, whether it stands above or below them. Where a SMILES comes first, the peptide text is derived from it. [ ]: non-standard residue; d: D form. pY = N[C@@H](Cc1ccc(OP(=O)(O)O)cc1)C(=O)O; mts = not defined here

Legend:
[1] = test system: SH2 domain of Stat3; experiment: IC50 FP (nM)
Method: Table printed on a drawing sheet, FIGURE 14a
Head of the field: IC50 FP (nM)
First copying reader's note: The column headed 'Structure' holds only drawn chemical structures (left empty here); the written peptidomimetic sequence stands in an unheaded column to its left.
Where the first naming reader finds the target: passage: The small peptidomimetics were assayed for their ability to bind to the SH2 domain of Stat3 using fluoresence polarization.

[2] = test system: Stat3-responsive α2-macroglobulin promoter; experiment: IL-6 stimulated luciferase reporter under α2-macroglobulin promoter in HEPG2 cells; type: cell-based; conditions: for inhibition of luciferase activity, initial screen: IL-6
Method: Liver hepatoma cells, HEPG2, when stimulated with IL-6, respond by increased phosphorylation of Stat3, which translocates to the nucleus and initiates transcription of acute response phase genes, such as a2-macroglobulin. HEPG2 cells were transfected with luciferase gene construct containing the α2-macroglobulin promoter. Cells were treated with peptides 21, 24, and 25 for 1 hr before stimulation with IL-6. Four hours later cells were lysed and luciferase activity was assayed (FIG. 9). […] Phosphopeptide 24 reduced induction to 60-70% of that of IL-6 at 50 and 100 μM.
(§1) Cell culture and transient transfection. HepG2 cells were grown in DMEM containing 10% fetal bovine serum. Cells were plated at a density of 3×10^5 per 6cm dish. Next day, plasmids were transfected with a plasmid comprised of firefly luciferase under the α2-macroglobulin promoter (Ren & Schaefer, 2002) at a ratio of 1 μg DNA to 3 μl Fugene-6 reagent according to the protocol supplied by Roche. After 48 hours, cells were treated with different peptides in serum free media for 1 hour, and then stimulated with […] IL-6. Cells were harvested at the time indicated.
(§2) Luciferase assay. Luciferase assay reagents were purchased from Promega and the assays performed according to the manufacturer's protocol. In brief, cells were washed twice with ice-cold PBS and then collected. After centrifugation at 4,500 rpm for 1 minute, cells were lysed in 1× lysis buffer (Promega) at room temperature for 30 minutes. The lysate was cleared by centrifugation at 13,000 rpm for 10 minutes. Then 50 μl of luciferase substrate was added to 10 μl of supernatant and the luciferase value was read by luminometer (Pharmingen). Each transfection was normalized to concomitant β-galactosidase expression from a control transfected plasmid pYN3214-lacZ.

[3] = target: T1, Stat3 (Homo sapiens, UniProt P40763); experiment: EMSA of inhibition of Stat3 dimerization and DNA binding by phosphopeptides; type: biochemical; conditions: averages of two determinations
Method: To find a lead compound for inhibitor development, a series of phospho-hexapeptides derived from known receptor docking sites for Stat3 were synthesized and assayed for their ability to inhibit Stat3 dimerization and DNA binding using electrophoretic mobility shift assays (EMSA) (Ren et al., 2003). […] SAR experiments were conducted systematically replacing each amino acid. The goal was to find non-peptidic groups that would be stable to phosphatases and proteases, and that would be more hydrophobic to allow greater bioavailability. […] The small peptidomimetics were assayed for their ability to bind to the SH2 domain of Stat3 using fluoresence polarization.
(§3) Nuclear extract was extracted as previously described (Andrews and Faller, 1991). Equal amount of nuclear extract protein was then incubated with ^32P labeled high-affinity c-sis-inducible element (hSIE; 5′-[…]-3′ , SEQ ID NO:25) (Santa Cruz). The reactions were performed in a total volume of 24 μl in buffer consisting of 10 mM HEPES (pH 7.8), 50 mM KCl, 1 mM EDTA, 5 mM MgCl2, 10% glycerol, 5 mM dithiothreitol, 1 mg of bovine serum albumin per ml, 0.5 mM phenyl-methylsulfonylflouride, and 1 mM Na3VO4 with 1 μg of poly (dI-dC) and 0.3 ng of ^32P-labeled hSIE. […] The screen was then scanned and the bands showing Stat3-DNA binding were quantified using the Storm System (Molecular Dynamics).

[4] = target: T1, Stat3; conditions: cited from earlier work
[5] = test system: Stat3-responsive α2-macroglobulin promoter; experiment: IL-6 stimulated luciferase reporter in Hep3B cells; type: cell-based; conditions: FIG. 10
Method: Peptidomimetic 23 was tested for the ability to inhibit luciferase induction in a second hepatoma cell line: Hep3B. Identical procedures as for the HEPG2 experiments above were used in this cell line.
as §1
as §2, with “Each transfection was normalized to concomitant β-galactosidase expression from a control transfected plasmid pYN3214-lacZ.” left out

[6] = target: T1, Stat3; experiment: Stat3 nuclear translocation, EMSA of nuclear extracts of IL-6 stimulated HepG2 cells; type: cell-based; conditions: HepG2, 100 μM for 1 hr, IL-6 15 min
Method: FIG. 11 is an image of a gel showing EMSA of nuclear extracts of HEPG2 cells inhibited with peptides. Shown are gels from two independent experiments. Lane 1, control: no IL-6 or inhibitor. Lane 2-6 are all stimulated with IL-6, 6 ng/mL. Lane 2, no inhibitor, Lane 3 phosphopeptide 24, Lane 4, control peptide 25, Lane 5, F2PmCinn peptide 21, Lane 6, prodrug 23.
HepG2 cells were treated with 100 μM peptide for 1 hr. Cells were stimulated with IL-6 and 15 min later cells were lysed and nuclear extracts were obtained.
as §3, with “hSIE. Following incubation for 15 min at room temperature, the reactions were electrophoresed on 4% native polyacrylamide gets.” for “hSIE.”

[7] = target: T2, full length Stat3 (Homo sapiens, UniProt P40763); experiment: Fluorescence polarization assay, competition with FP probe for full length Stat3; type: binding
T2 construct: Aliquots of 50 μl of 80 nM full length Stat^3a and 20 nM of probe
Method: FIG. 5 is FP curves of Stat3. Left panel, Titration of full length Stat3 into 10 nM solutions of FP probe. Each protein concentration was run in duplicate and the mean ±½ the difference between the high and low value was plotted. […] Each peptide concentration was run in duplicate and the mean ±½ the difference between the high and low value was plotted. A Perkin Elmer (formerly Packard) 204DT Multiprobe liquid handling robot was used to prepare serial dilutions of the inhibitors and to add these solutions to Stat3-probe solutions. The dilutions and additions were done in 96-well plates and FP was read on a Tecan Polarian plate reader. […]
Fluorescence polarization (FP) is a rapid and easy method for the measurement of peptide-protein interactions, drug-protein interactions, and drug-oligonucleotide interactions, and is readily adaptable to high throughput formats (reviewed in Nasir & Joley, 1999; Owicki, 2000). FP involves exciting a fluorophore with polarized light and taking the ratio of fluorescence at right angles after a brief period of time. […]
Aliquots of 50 μl of 80 nM full length Stat^3a and 20 nM of probe in 50 mM NaCl, 10 mM Hepes, 1 mM Na4EDTA, 2 mM DTT, and 1% NP-40 were placed in wells of a 96 well black, opaque, non-stick microtiter plate. […] Fluorescence polarization was then read in a Tecan Polarian plate reader. […]

T1 sequence (P40763 whole entry, species assumed, the tested form may be a part): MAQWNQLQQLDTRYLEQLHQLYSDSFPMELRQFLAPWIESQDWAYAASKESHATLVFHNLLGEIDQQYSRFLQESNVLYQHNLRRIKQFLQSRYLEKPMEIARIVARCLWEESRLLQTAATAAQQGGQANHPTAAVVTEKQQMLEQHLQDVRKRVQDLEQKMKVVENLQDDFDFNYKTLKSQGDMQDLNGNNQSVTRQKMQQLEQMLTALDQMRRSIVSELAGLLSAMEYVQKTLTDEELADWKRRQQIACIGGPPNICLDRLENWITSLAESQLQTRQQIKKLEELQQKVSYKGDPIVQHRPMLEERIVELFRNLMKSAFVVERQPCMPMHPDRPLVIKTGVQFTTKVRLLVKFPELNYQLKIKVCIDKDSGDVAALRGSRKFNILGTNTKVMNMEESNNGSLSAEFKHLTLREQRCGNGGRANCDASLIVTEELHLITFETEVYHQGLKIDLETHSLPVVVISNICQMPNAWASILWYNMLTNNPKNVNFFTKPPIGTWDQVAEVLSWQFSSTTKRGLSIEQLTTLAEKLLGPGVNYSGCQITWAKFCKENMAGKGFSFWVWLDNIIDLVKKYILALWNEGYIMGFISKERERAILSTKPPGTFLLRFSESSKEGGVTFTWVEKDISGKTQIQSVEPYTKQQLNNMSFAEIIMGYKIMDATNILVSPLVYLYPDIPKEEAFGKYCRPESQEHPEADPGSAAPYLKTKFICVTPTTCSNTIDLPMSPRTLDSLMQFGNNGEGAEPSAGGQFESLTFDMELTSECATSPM
T2 sequence (P40763 whole entry, species assumed): as the sequence (P40763 whole entry, species assumed, the tested form may be a part) above

IC50 [1]: 110 nM
Compound: pCinn-Leu-Pro-Gln- Thr-NH2 [5 | PM-50D]

IC50 [1]: 50 nM
Compound: pCinn-Cha-Pro-Gln- NHBn [7 | PM-66D]

Compound: H-Pro-pTyr-Leu-Lys-Thr-Lys-Phe-Ile-mts (H-P[pY]LKTKFI-mts; reading uncertain; also: printed as H-Pro-pTyr-Leu-Lys-Thr-Lys-Phe-Ile-mts) [Peptide 27, reported by Turkson et al (2001), reference compound]
inhibition of luciferase activity, initial screen ([2]; HEPG2, 100 μM): neither phosphopeptide 26 nor the unphosphorylated version, 27 (Turkson et al, 2001), showed inhibition of luciferase activity

Compound: H-Pro-Tyr-Leu-Lys-Thr-Lys-Phe-Ile-mts (H-PYLKTKFI-mts; not fully specified; reading uncertain) [Peptide 26, reported by Turkson et al (2001), reference compound]
inhibition of luciferase activity, initial screen ([2]; HEPG2, 100 μM): neither phosphopeptide 26 nor the unphosphorylated version, 27 (Turkson et al, 2001), showed inhibition of luciferase activity

Compound: Ac-Tyr-Leu-Pro-Gln-Thr-Val-mts (Ac-YLPQTV-mts; not fully specified; printed as Ac-Tyr-Leu-Pro-Gln-Thr-Val-mts; reading uncertain) [Peptide 25, non-phosphorylated control]
reduction in luciferase activity ([2]; HEPG2, 50 or 100 μM, 1 hr before IL-6, lysed 4 h later): no significant reduction in luciferase activity

Compound: CC(=O)N[C@@H](Cc1ccc(OP(=O)(O)O)cc1)C(=O)N[C@@H](CC(C)C)C(=O)N[C@@H](CCCCN)C(=O)N[C@H](C(=O)N[C@@H](CCCCN)C(=O)N[C@@H](Cc1ccccc1)C(N)=O)[C@@H](C)O [Peptide 2, Ac-pTyr-Leu-Lys-Thr-Lys-Phe-NH2] (Ac-[pY]LKTKF-NH2)
IC50 [3]: 20000 nM

Compound: CC(C)C[C@H](NC(=O)[C@H](Cc1ccc(OP(=O)(O)O)cc1)NC(=O)c1ccc(C#N)cc1)C(=O)O [ISS 610]
concentration required for activity in luciferase reporter and cell growth assays ([4]; cell culture models, Turkson et al. (2004)): 1 mM

Compound: F2Pm(POM)Cinn-Haic-Gln-NHBn [Compound 23]
reduction in luciferase activity [5]: dose dependant reduction in luciferase activity
inhibition of Stat3 translocation to the nucleus [6]: inhibited Stat3 translocation to the nucleus

Compound: NC(=O)CCC(NC(=O)C1CCC2CCC(NC(=O)C=Cc3ccc(OP(=O)(O)O)cc3)C(=O)N21)C(=O)NCc1ccccc1 (stereo not drawn) [FIG. 15 compound]
IC50 ([7]; assay not named, presumably fluorescence polarization, read-out: IC50 of the FIG. 15 compound): 400 nM

Compound: F2PmCinn-Leu-Pro-Gln-Thr-Val-Ala-Ala-Val-Leu-Leu-Pro-Val-Leu-Leu-Ala-Ala-Pro-NH2 [Peptide 21]
luciferase activity, % of untreated cells ([2]; HEPG2, 50 μM): 50%
luciferase activity, % of untreated cells ([2]; HEPG2, 100 μM): 25%
inhibition of Stat3 translocation to the nucleus [6]: inhibited Stat3 translocation to the nucleus

IC50 [1]: 100 nM
Compound: pInd-Cha-Pro-Gln- NHBn [9 | PM-67D]

Compound: Ac-pTyr-Leu-Pro-Gln-Thr-Val-mts (Ac-[pY]LPQTV-mts; reading uncertain; also: printed as Ac-pTyr-Leu-Pro-Gln-Thr-Val-mts) [Peptide 24]
luciferase induction, % of that of IL-6 ([2]; HEPG2, at 50 and 100 μM): 60-70%

IC50 [1]: 2000 nM
Compound: F2PmCinn-Cha-Pro- Gln-NHBn [8 | PM-88D]

Compound: H-P[pY]LKTKAAVLLPVLLAAP-OH [SEQ ID NO:4]
concentration required to inhibit luciferase reporter gene expression, Stat3 nuclear translocation, and cell growth ([4]; cell culture, Turkson et al.): 0.5 to 1 mM

Compound: CC(=O)NC(Cc1ccc(OP(=O)(O)O)cc1)C(=O)NC1CCc2cccc3c2N(C1=O)C(C(=O)NC(CCC(N)=O)C(=O)NC(C(N)=O)C(C)O)C3 (stereo not drawn) [Compound 10, Ac-pTyr-Haic-Gln-Thr-NH2]
IC50 ([7]; 10 nM probe and 40 nM Stat3 final, read-out: IC50 (fluorescence polarization)): 100 to 200 nM
